The record followed here is patent publication US20050014782A1, “Novel n-(heterobicycloalkanes)-substituted indoles-or heteroderivatives thereof” (Boehringer Ingelheim International GmbH, priority 2003, published 2005).

Each structure is given as a SMILES string. pKi: −log10 of the molar value. Where a name gives a salt, the structure may show the parent alone.

In series [1] the target is T1, human chemokine receptor CCR-3 (Homo sapiens, UniProt P51677).
T1 construct: expressed in transfected cells; host or cells: K562 cells (clone hCCR-3-C1), membranes
T1 sequence (P51677 1-355): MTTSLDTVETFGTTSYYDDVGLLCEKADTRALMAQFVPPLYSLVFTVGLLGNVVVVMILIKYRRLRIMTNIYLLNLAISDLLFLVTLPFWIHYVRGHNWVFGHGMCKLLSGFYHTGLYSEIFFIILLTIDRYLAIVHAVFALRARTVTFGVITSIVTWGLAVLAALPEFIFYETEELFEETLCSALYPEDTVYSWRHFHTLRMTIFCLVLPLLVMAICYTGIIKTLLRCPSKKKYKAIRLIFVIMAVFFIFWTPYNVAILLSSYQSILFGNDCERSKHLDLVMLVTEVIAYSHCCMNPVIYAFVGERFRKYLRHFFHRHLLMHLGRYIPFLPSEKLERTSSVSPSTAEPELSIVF
The series can be described thus: CCR-3 receptor binding assay, 125Jodine-eotaxin-1 Scintillation Proximity Assay (SPA). The protocol: The CCR-3 receptor binding test is based on a K562 cell line (leukemia myelogenic blast cells) transfected with the human chemokine receptor CCR-3 (hCCR-3-C1). The cell membranes were prepared by disrupting the hCCR-3 transfected K562 cells by […] and centrifugation at 40000 g, 4° C. for 1 h. The membranes were re-suspended in the SPA incubation buffer without bovine serum albumin for storage in aliquots at −80° C.
The CCR-3 receptor binding assay with the radioligand ^125Jodine-eotaxin-1 was performed in a Scintillation Proximity Assay (SPA) design. Cell membranes of hCCR-3 C1 cells were diluted in suitable concentrations (0.5-5 ug protein/well) in 96 well microtiter plates (1450-401, Wallac).
The test incubation mixture comprising 60 μl of the membrane suspension, 80 μl of the Wheat Germ Agglutinin coated PVT beads (organic scintillator, Amersham Pharmacia biotech) in a concentration of 0.4 mg and 40 μl of radiolabelled ^125J rhEotaxin (Amersham, IM290) were incubated with 20 μl of the test compound (dissolved in DMSO dilutions) for 2 hours. The SPA incubation buffer contained 25 mM HEPES, 25 mM MgCl2 6×H2O, 1 mM CaCl2 2×H2O and 0.1% bovine serum albumin. Included were controls for specific binding (no displacer added) and non-specific binding by adding unlabelled rhEotaxin (R&D Systems) or a test compound. Bound radioactivity was determined by scintillation counter (Micro Beta “Trilux”, Wallac). Determination of affinity of test compounds (dissociation constant Ki) was calculated by iterative fitting of experimental data using the law of mass action based program “easy sys” (Schittkowski, Num Math 68, 129-142 (1994)).

`CCc1nc2cc(F)ccc2n1C1CC2CCC(C1)N2CCCSc1ccc(F)cc1` (centres unmarked) [Example 10, 2-Ethyl-5-fluoro-1-{8-[3-(4-fluoro-phenylsulfanyl)-propyl]-8-aza-bicyclo[3.2.1]oct-3-yl}-1H-benzoimidazole]: in series [1], the negative logarithm of the Ki (pKi) (in general, the negative decadic logarithm of the Ki, by convention in mol/L) is 8.19.

Molecule `Fc1ccc(SCCCN2C3CCC2CC(n2c(C4CC4)nc4cc(F)ccc42)C3)cc1` (centres unmarked) [Example 9, 2-Cyclopropyl-5-fluoro-1-{8-[3-(4-fluoro-phenylsulfanyl)-propyl]-8-aza-bicyclo[3.2.1]oct-3-yl}1H-benzoimidazole] gave a negative logarithm of the Ki (pKi) in series [1] of 8.00.

Take `Cc1nc2cc(F)ccc2n1C1CC2CCC(C1)N2CCCSc1ccc(F)cc1` (centres unmarked) (as salt: HCl) [Example 11, 5-Fluoro-1-{8-[3-(4-fluoro-phenylsulfanyl)-propyl]-8-aza-bicyclo[3.2.1]oct-3-yl}-2-methyl-1H-benzoimidazole]: the melting point (usually the temperature, or range, at which the solid turns liquid) was 240 to 241 °C.

In turn, `Cc1nc2cc(F)ccc2n1C1CC2CCC(C1)N2CCCSc1ccc(F)cc1` (centres unmarked) [Example 11, 5-Fluoro-1-{8-[3-(4-fluoro-phenylsulfanyl)-propyl]-8-aza-bicyclo[3.2.1]oct-3-yl}-2-methyl-1H-benzoimidazole] had a negative-log Ki (pKi) in series [1] of 7.85.

Regarding `CCc1nc2cc(F)ccc2n1C1CC2CCC(C1)N2CCCSc1ccc(F)cc1` (centres unmarked) (as salt: HCl) [Example 10, 2-Ethyl-5-fluoro-1-{8-[3-(4-fluoro-phenylsulfanyl)-propyl]-8-aza-bicyclo[3.2.1]oct-3-yl}-1H-benzoimidazole], the melting point lay in the range of 127 to 128 °C.
